Assay results reported in patent US7855232B2, “Organoselenium compound for cancer chemoprevention” (LKT Laboratories, Inc., priority 2001, dated 2010).
Marks after values point to notes of the source that are not given here.

Tests used:
[1] = test system: Glutathione S-Transferase; assay: Glutathione S-transferase (GST) activity in tissue cytosol of treated mice, CDNB substrate; type: in vivo, Female A/J mice; details: for Ratio Test/con (GST): gavage; for GST act.: gavage in corn oil
Protocol: The activity of cytosolic was assayed according to the method of Habig et al. using 1-chloro-2,4-dinitrobenzene (CDNB) as the substrate. Habig et al, J. Biol. Chem. 249:7130-7139 (1974). The complete solution contains, in a total volume of 2.0 mL, 0.1 M phosphate buffer, pH 6.5, 5 mM glutathione, 1 mM CDNB, and 20 μL of the cytosol. The reaction was monitored at 340 nm in a Beckman Model DU65 UV-VIS spectrophotometer. Assays were performed at 30° C. Complete assay mixture without the cytosolic enzyme was used as the reference blank. Data as analyzed by the Student's “t” test and P values were obtained in comparison to the control.

aberrant crypts (AC) = assay: Inhibition of DMH-induced aberrant crypt (AC) formation in colon; type: in vivo, Female CF1 mice; details: high dose 0.04 mmol/kg body weight, gavage, without DMH
Description: Precancerous lesions called aberrant crypts (AC) are used as a marker for colon carcinogenesis. Mice and rats, when exposed to colon-specific carcinogen, develop preneoplastic changes in colon crypts which leads to malignancy through dysplasia-carcinoma sequence. […] McLellan et al., Cancer Res. 48:6183-6186 (1988); McLellan et al., Cancer Res. 48:2311-2315 (1988).
The effect of colon-specific carcinogenesis is typically seen in the induction of AC formation in less than two weeks. AC formation is dose dependent and can be quantitated without elaborate instrumentation. In view of the short time-frame required to get quantifiable results, this bio-assay is a useful prescreening tool for the evaluation of chemopreventative efficacy of compounds that are effective against colon cancer. The protocol for aberrant crypts is shown below:
Female CF1 mice, 3 weeks of age, were purchased from Harlan Sprague-Dawley, Indianapolis, 1N. They were housed, 5 mice per cage, in temperature and humidity-controlled animal quarters with 12 hours light/dark cycle and fed AIN 76A semipurified diet until the ent of the experiment. Water was given ad libitim. The animals were separated into experimental and control groups. The test compounds 0.03-0.04 mmol/kg body weight dissolved in 0.3 mL corn oil, were given by gavage one per day for 8 days. One hour after the inhibitors administration on the 4th and 8th days, 0.4 mg of DMH in 0.2 mL of 0.001 M EDTA, adjusted to pH 6.5 with sodium bicarbonate, was given by gavage. Starting on the 9th day, the inhibitors were given once every other day for an additional 3 weeks. This regimen of inhibitor administration ensures the coverage both the initiation and post initiation periods of carcinogen exposure.
At the end of the 3 week period, the animals were sacrificed and the colons removed. The starting and terminating weights of the animals were recorded. The procedures for the determination of aberrant crypts were those reported by Bird (Cancer Letters 37:147-151 (1987)). The mouse colon including the caecum was removed, rinsed with PBS, and opened longitudinally. The colon contents was removed by washing with PBS. The colon was spread mucosal side up on a piece of filter paper and fixed in buffered formalin overnight. It was then stained with 0.2% methylene blue in PBS for 60 min. The AC foci was read under light microscope. The AC are topographically distinguished by their increased size, increased pericryptal zone, and thicker and deeply stained epithelial lining compared to normal crypts. The number of foci and AC in the colorectal and caecal parts of the colon were recorded separately. The significance of the data was determined by the analysis of variance method. The significance of the incidence of aberrant crypts bearing animals was analyzed by the X^2 test. The aberrant crypts were examined histologically to verify the dysplastic nature of the changes in animals treated with carcinogens and those treated with carcinogens and inhibitors.

GSH = assay: Glutathione (GSH) concentration in tissues of treated mice, HPLC; type: in vivo, Female A/J mice; details: for Ratio Test/con (GSH): gavage; for GSH conc.: gavage in corn oil
Protocol: GSH was quantitated by modification of the procedure Siller-Cepeda et al. Plant Cell Physiol. 32:1179-1185 (1991). Aliquots of tissue homogenates were mixed with equal volumes of 20% PCA containing 2 mM BPDS. Vortex, centrifuge at 7800×g for 15 minutes at 4° C. and 250 μl supernatant transferred into a microfuge tube containing 25 μl of γ-glu-glu as internal standard. The samples were carboxymethylated with 25 μl of 100 mM iodoacetic acid dissolved in 0.2 mM m-cresol purple sodium salt solution. The pH of the solution was adjusted to 9-10 by adding 350 μl of KOH (2M)-KHCO3 (2.4 M) mixture and incubated in the dark for 15 minutes. After carboxymethylation, the samples were derivatized with 500 μl of 1% dinitrofluorobenzene (DNFB) and kept in the dark at 4° C. overnight. The samples were centrifuged at 13,000×g for 15 minutes, filtered through 0.2 μm filter, and were analyzed with a SHIMADZU two-pump gradient HPLC system. Samples were injected by a SHIMADZU SIL-10AV Autoinjector onto a Varian 3-aminopropyl MICROSORB-MV column (4.6×250 mm) operated at ambient temperature with a flow rate of 1 ml/min. Absorbance of the dinitrophenyl derivatives was monitored at 365 nm. The amount of GSH was calculated from a standard curve using γ-glu-glu as internal standard.

[2] = test system: UDP-Glucuronosyltransferase (UDP-GT); assay: UDP-glucuronosyltransferase (UDP-GT) activity in liver microsomes of treated mice, o-aminophenol substrate; type: in vivo, Female A/J mice; details: for Ratio Test/con (UDP-GT): gavage; for UDP-GT activity (column head prints GSH conc.): gavage in corn oil
Protocol: Microsomal samples were assayed for enzymatic conjugation by modifying the procedure of Zakim et al., Methods of Biochemical Analysis, ed. David Glick, 21:1-37, (1973). using o-aminophenol as the substrate. The complete assay solution contains, in a total volume of 500 μl, 0.25 M phosphate buffer (pH 7.6), 0.002 M o-aminophenol, 0.05 M UDPGA, 0.125 M magnesium chloride and 100 μl microsomes. The mixture was incubated for 30 minutes. Reactions were stopped by the addition of 500 μl of TCA-sodium phosphate reagent. The precipitated protein was removed, 100 μl of 0.05% sodium nitrite was added to 950 μl of the supernatent solution and allowed to stand for 5 minutes. 100 μl of 0.5% ammonium sulfamate was added, after 5 minutes. 100 μl of 0.12% N-(-1-naphthyl)ethylenediamine dihydrochloride was added and incubated for 2 hours in the dark; and the difference in the optical density between the blanks and the samples were recorded at 555 nm in a Beckman model DU65 UV-VIS spectrophotometer. The UDP-GT activity was calculated using the extinction coefficient 29 mM-1 cm-1 for the coupled product.

[3] = colon, dose 0.02 mmol/Kg body weight
[4] = colon, dose 0.04 mmol/Kg body weight
[5] = forestomach, dose 0.02 mmol/Kg body weight
[6] = forestomach, dose 0.04 mmol/Kg body weight
[7] = liver, dose 0.02 mmol/Kg body weight
[8] = liver, dose 0.04 mmol/Kg body weight
[9] = lung, dose 0.02 mmol/Kg body weight
[10] = lung, dose 0.04 mmol/Kg body weight
[11] = small intestinal mucosa, dose 0.02 mmol/Kg body weight
[12] = small intestinal mucosa, dose 0.04 mmol/Kg body weight

Compound: N#C[Se]C([Se]C#N)c1cccs1 [(1) TMSC, 2-thienyl methylene selenocyanate]
- melting point: 48 to 50 °C

Compound: [Se]=C=NCc1ccc(CN=C=[Se])s1 [(6) TDMISC, thienyl-2,5-di-methylene isoselenocyanate]
- Ratio Test/con (GST) [1, 3]: 1.12
- GST act. [1, 3]: 0.73 ± 0.026 ^g μmol/min mg protein
- Ratio Test/con (GST) [1, 4]: 1.14
- GST act. [1, 4]: 0.74 ± 0.04 ^f μmol/min mg protein
- Ratio Test/con (GST) [1, 5]: 0.93
- GST act. [1, 5]: 1.03 ± 0.20 μmol/min mg protein
- Ratio Test/con (GST) [1, 6]: 1.11
- GST act. [1, 6]: 1.23 ± 0.35 μmol/min mg protein
- Ratio Test/con (GST) [1, 7]: 1.90
- GST act. [1, 7]: 2.43 ± 0.46 ^e μmol/min mg protein
- Ratio Test/con (GST) [1, 8]: 2.53
- GST act. [1, 8]: 3.24 ± 0.39 ^e μmol/min mg protein
- Ratio Test/con (GST) [1, 9]: 1.29
- GST act. [1, 9]: 0.44 ± 0.04 ^f μmol/min mg protein
- Ratio Test/con (GST) [1, 10]: 1.73
- GST act. [1, 10]: 0.59 ± 0.29 μmol/min mg protein
- Ratio Test/con (GST) [1, 11]: 2.45
- GST act. [1, 11]: 0.54 ± 0.11 ^e μmol/min mg protein
- Ratio Test/con (GST) [1, 12]: 2.41
- GST act. [1, 12]: 0.53 ± 0.03 ^c μmol/min mg protein
- % animals (aberrant crypts (AC)): 0.0%
- AC/Colon (aberrant crypts (AC)): 0.00
- AC/Foci (aberrant crypts (AC)): 0.00
- ACF/Colon (aberrant crypts (AC)): 0.00
- Total AC (aberrant crypts (AC)): 0
- Total ACF (aberrant crypts (AC)): 0
- Ratio Test/con (GSH) (GSH; [7]): 0.95
- GSH conc. (GSH; [7]): 3.38 ± 1.11 μmol/gm tissue weight
- Ratio Test/con (GSH) (GSH; [8]): 1.49
- GSH conc. (GSH; [8]): 5.29 ± 1.09 μmol/gm tissue weight
- Ratio Test/con (GSH) (GSH; [11]): 1.07
- GSH conc. (GSH; [11]): 2.26 ± 1.87 μmol/gm tissue weight
- Ratio Test/con (GSH) (GSH; [12]): 1.76
- GSH conc. (GSH; [12]): 3.71 ± 0.31^d μmol/gm tissue weight
- Ratio Test/con (UDP-GT) ([2]; dose 0.02 mmol/Kg body weight): 1.50
- UDP-GT activity (column head prints GSH conc.) ([2]; dose 0.02 mmol/Kg body weight): 6.08 ± 0.76 ^d nmol/min/mg protein
- Ratio Test/con (UDP-GT) ([2]; dose 0.04 mmol/Kg body weight): 1.49
- UDP-GT activity (column head prints GSH conc.) ([2]; dose 0.04 mmol/Kg body weight): 7.98 ± 2.49 nmol/min/mg protein
